Assay results from article PMC12154458, “High-Throughput Screens of Repurposing Hub and DOS Chemical Libraries Reveal Compounds with Novel and Potent Inhibitory Activity Against the Essential Non-Neuronal Acetylcholinesterase of Schistosoma mansoni (SmTAChE)” (International Journal of Molecular Sciences, 2025).
Where two headings read alike, the source gives them in different places.

Assays:
rSmTAChE [1] = target: T1, rSmTAChE (Schistosoma mansoni, UniProt A0A3Q0KMM5); test: biochemical
rSmTAChE [2] = target: T1, rSmTAChE; format: biochemical
[3] = target: recombinant human acetylcholinesterase, rHsAChE (Homo sapiens, UniProt P22303); test: biochemical
Sequence of recombinant human acetylcholinesterase, rHsAChE (P22303 32-614): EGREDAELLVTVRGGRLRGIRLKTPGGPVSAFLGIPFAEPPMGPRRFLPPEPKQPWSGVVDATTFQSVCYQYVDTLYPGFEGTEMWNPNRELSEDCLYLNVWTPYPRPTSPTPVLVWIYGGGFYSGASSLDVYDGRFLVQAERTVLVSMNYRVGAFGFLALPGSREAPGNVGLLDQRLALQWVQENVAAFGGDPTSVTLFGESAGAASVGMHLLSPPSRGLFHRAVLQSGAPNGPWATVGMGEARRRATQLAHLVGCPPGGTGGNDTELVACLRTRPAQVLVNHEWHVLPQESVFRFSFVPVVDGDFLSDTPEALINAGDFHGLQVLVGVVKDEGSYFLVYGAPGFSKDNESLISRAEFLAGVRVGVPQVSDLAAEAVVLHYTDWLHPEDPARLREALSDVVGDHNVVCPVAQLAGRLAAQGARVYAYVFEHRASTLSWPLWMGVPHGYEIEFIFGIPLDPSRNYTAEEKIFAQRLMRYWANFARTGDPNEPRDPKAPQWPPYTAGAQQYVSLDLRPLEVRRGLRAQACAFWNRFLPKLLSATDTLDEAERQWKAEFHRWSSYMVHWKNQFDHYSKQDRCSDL

[4] = read-out: rSmTAChE HTS Inhibition (Ave, %)
[5] = Table 3, read-out: IC50 (µM) rHsAChE
[6] = dose response analysis of Drug Repurposing Hub hits against rHsAChE
[7] = read-out: HTS/rSmTAChE Inhibition (Ave, %)
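Throughout, for Inhibition (%) (Average): mostly 20 µM final but a few compounds at 5 or 10 µM.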
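Throughout, for Inhibition (%) Replicate A: mostly 20 µM final but a few compounds at 5 or 10 µM.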
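Throughout, for Inhibition (%) Replicate B: mostly 20 µM final but a few compounds at 5 or 10 µM.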

T1 sequence (A0A3Q0KMM5 27-661 limits assumed): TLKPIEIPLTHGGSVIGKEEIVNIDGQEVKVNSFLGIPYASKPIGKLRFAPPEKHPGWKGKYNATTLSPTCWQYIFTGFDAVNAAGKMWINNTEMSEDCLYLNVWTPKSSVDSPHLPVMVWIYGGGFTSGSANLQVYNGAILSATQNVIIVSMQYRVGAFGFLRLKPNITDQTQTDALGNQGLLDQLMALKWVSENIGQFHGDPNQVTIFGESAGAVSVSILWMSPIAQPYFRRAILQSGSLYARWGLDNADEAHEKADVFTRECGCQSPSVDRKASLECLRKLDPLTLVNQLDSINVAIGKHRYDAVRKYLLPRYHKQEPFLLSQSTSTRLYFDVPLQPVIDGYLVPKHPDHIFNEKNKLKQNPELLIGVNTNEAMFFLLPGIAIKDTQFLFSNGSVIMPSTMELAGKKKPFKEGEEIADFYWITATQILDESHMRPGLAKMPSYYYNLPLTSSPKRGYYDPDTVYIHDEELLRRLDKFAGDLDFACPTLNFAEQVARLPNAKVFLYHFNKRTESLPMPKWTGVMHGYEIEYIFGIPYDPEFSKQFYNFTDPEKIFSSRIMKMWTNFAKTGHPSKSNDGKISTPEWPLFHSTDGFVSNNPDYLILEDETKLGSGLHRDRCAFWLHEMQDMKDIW

Row | Compound | inhibition at 20 µM (rSmTAChE [1]; [4]) | Data Mode (curve class), rSmTAChE (rSmTAChE [2]) | SI (Sm/Hs) [3] | Data Mode (curve class), rHsAChE [3, 6] | Data Mode (curve class), rHsAChE [3] | IC50 ([3]; IC50 (µM) rHsAChE) | SI (Hs/Sm) (rSmTAChE [2]) | Inhibition (%) Replicate A (rSmTAChE [1]) | Inhibition (%) Replicate B (rSmTAChE [1]) | IC50 ([3]; read-out: IC50 (µM) rHsAChE) | IC50 (rSmTAChE [2]; read-out: IC50 (µM) rSmTAChE) | also measured
1 | CC1(COc2ccc3c(c2)ncn3-c2ccc3cccc(N4CCC(N)CC4)c3n2)COC1 [Crenolanib, reference compound] | 64.5% | decreasing (weakly active) | 1.97 | decreasing | – | – | – | – | – | – | – | IC50 [3, 5]: 9.91 µM
2 | CN(CCCCCCCCCCN(C)C(=O)Oc1cccc([N+](C)(C)C)c1)C(=O)Oc1cccc([N+](C)(C)C)c1 [Demecarium bromide, reference compound] | 65.3% | decreasing | – | – | decreasing | 0.02 µM | – | – | – | – | – | IC50 ([3]; qAC50 (IC50), rHsAChE): 0.0225 µM
3 | CCCCCCCCCCCC1=C(O)C(=O)C=C(O)C1=O [Embelin, reference compound] | – | decreasing | – | decreasing | – | 1.8 µM | 1.44 | – | – | – | – | inhibition at 10 µM (rSmTAChE [1]; [7]): 88.7%; fold greater potency/selectivity for SmTAChE vs. HsAChE (Selectivity Index) (rSmTAChE [2]): 1.4 fold
4 | Brc1cc2c(cc1[C@@H]1Nc3ccccc3[C@@H]3C=CC[C@@H]31)OCO2 [G15, reference compound] | – | decreasing (weakly active) | 2.81 | – | decreasing (weakly active) | – | – | 75.36% | 80.61% | > 13.5 µM | – | rSmTAChE HTS Inhibition (Ave, %) (rSmTAChE [1]; 20 µM): 77.99%
5 | O=C(O)c1ccc(-c2c[nH]c3ncc(-c4ccccc4)cc23)cc1C1CCCC1 [GSK-650394, reference compound] | – | decreasing | – | decreasing | – | 8.1 µM | 3.46 | – | – | – | – | inhibition at 10 µM (rSmTAChE [1]; [7]): 75.4%; IC50 ([3]; qAC50 (IC50), rHsAChE): 8.09 µM
6 | CC(C)c1onc(-c2c(Cl)cccc2Cl)c1COc1ccc(/C=C/c2cccc(C(=O)O)c2)c(Cl)c1 [GW-4064, reference compound] | – | decreasing | – | – | decreasing | – | 6.00 | 66.57% | 65.41% | 8.83 µM | 1.47 µM | Inhibition (%) (Average) (rSmTAChE [1]): 65.99%; HTS/rSmTAChE Inhibition (Ave, %) (rSmTAChE [1]; 20 µM): 66.00%
7 | O=C(O)CNC(=O)c1c(O)c2ccccc2n(Cc2ccccc2)c1=O [IOX2, reference compound] | – | decreasing | 2.16 | – | decreasing | – | – | 61.67% | 70.82% | 7.75 µM | 16.7 µM | rSmTAChE HTS Inhibition (Ave, %) (rSmTAChE [1]; 5 µM): 66.25%; IC50 (rSmTAChE [2]; read-out: qAC50 (IC50), rSmTAChE): 16.7 µM
8 | COc1ccc(/C=C/CCCCOc2ccc(C(=O)c3cccc(C(=O)O)c3)cc2CCC(=O)O)cc1 [LY223982, reference compound] | – | decreasing | 2.1 | – | decreasing | – | – | 83.69% | 77.36% | 7.22 µM | 15.2 µM | rSmTAChE HTS Inhibition (Ave, %) (rSmTAChE [1]; 20 µM): 80.52%
9 | O=C(Nc1ncc(SCCN2CCCC2)s1)[C@]1(c2ccc(S(=O)(=O)C3CC3)cc2)C[C@H]1C1CCCCC1 [LY2608204, reference compound] | – | decreasing (weakly active) | 23.28 | – | decreasing | – | – | 71.61% | 81.29% | 0.52 µM | > 12 µM | rSmTAChE HTS Inhibition (Ave, %) (rSmTAChE [1]; 20 µM): 76.45%
10 | O=C(NC(=O)c1c(F)cccc1F)Nc1cc(Cl)c(OC(F)(F)C(F)C(F)(F)F)cc1Cl (stereo not drawn) [Lufenuron, reference compound] | 92.6% | decreasing (weakly active) | – | – | decreasing | 12 µM | – | – | – | – | – | IC50 ([3]; qAC50 (IC50), rHsAChE): 12 µM
11 | COc1ccc2cc(-c3cc(-c4cc(Cl)cc(Cl)c4)nn3[C@@H](C)c3ccc(C(=O)NCCC(=O)O)cc3)ccc2c1 [MK-0893, reference compound] | – | decreasing | – | – | – | – | – | – | – | – | – | inhibition at 20 µM (rSmTAChE [1]; [7]): 88.7%; IC50 (µM) rHsAChE ([3]; Table 1, Inactive = inactive at the maximum tested concentration (40 µM)): Inactive *; inhibition of rHsAChE, result in words ([3]; dose–response, up to 40 µM): no inhibition detected
12 | O=C(O)Cn1nnc(-c2cc(N3CCC(Oc4cc(F)ccc4Br)CC3)no2)n1 [MK-8245, reference compound] | 71.5% | decreasing | 4.71 | decreasing | – | – | – | – | – | – | – | IC50 [3, 5]: 7.93 µM
13 | C[C@H](Cc1ccc(O)c(O)c1)[C@@H](C)Cc1ccc(O)c(O)c1 [Masoprocol, reference compound] | – | decreasing | – | decreasing (weakly active) | – | – | 2.32 | – | – | – | – | inhibition at 20 µM (rSmTAChE [1]; [7]): 76.4%
